# Measurements: ChEMBL document CHEMBL1201862, “PubChem BioAssay data set” (2004)
# “And” between values parts separate entries of the source, which are not always exact repeats. Equal values may be shown once. The source made the active and inactive calls.
# How the values were obtained:
# Cytochrome P450 1A2 = molecular target: T1, Cytochrome P450 1A2 (Homo sapiens, UniProt P05177);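 further: PubChem cytochrome P450 panel assay, CYP1A2 panel member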
# T1 sequence (P05177 whole entry): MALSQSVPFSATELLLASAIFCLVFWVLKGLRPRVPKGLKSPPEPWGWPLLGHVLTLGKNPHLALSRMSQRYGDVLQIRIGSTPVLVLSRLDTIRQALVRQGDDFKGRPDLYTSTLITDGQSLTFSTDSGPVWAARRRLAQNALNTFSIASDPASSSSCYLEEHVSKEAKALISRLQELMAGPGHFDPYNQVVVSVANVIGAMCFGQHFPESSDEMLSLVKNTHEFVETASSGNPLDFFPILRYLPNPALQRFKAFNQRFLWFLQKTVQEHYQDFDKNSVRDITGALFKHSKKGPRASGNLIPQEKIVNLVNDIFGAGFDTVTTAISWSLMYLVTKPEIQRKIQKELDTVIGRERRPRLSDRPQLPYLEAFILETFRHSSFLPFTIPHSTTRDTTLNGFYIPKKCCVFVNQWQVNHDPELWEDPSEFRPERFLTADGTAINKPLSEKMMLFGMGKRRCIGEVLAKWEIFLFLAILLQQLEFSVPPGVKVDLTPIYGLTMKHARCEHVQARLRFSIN
# Cytochrome P450 2C19 = Cytochrome P450 2C19 (Homo sapiens, UniProt P33261); assay: Cytochrome panel assay with activity outcomes. Panel member name: p450-cyp2c19 Compounds with AC50 equal or less than 10 uM are considered active; type: functional
# Cytochrome P450 3A4 = Cytochrome P450 3A4 (Homo sapiens, UniProt P08684);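 further: CYP3A4 tested as one member of a cytochrome P450 panel screen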
# [1] = molecular target: T2, Replicative DNA helicase DnaB (Mycobacterium tuberculosis, UniProt P9WMR3); assay: DnaB intein splicing inhibitors, dose response, biochemical, cell-free fluorescence (AID 449749); type: functional
# T2 sequence (P9WMR3 whole entry): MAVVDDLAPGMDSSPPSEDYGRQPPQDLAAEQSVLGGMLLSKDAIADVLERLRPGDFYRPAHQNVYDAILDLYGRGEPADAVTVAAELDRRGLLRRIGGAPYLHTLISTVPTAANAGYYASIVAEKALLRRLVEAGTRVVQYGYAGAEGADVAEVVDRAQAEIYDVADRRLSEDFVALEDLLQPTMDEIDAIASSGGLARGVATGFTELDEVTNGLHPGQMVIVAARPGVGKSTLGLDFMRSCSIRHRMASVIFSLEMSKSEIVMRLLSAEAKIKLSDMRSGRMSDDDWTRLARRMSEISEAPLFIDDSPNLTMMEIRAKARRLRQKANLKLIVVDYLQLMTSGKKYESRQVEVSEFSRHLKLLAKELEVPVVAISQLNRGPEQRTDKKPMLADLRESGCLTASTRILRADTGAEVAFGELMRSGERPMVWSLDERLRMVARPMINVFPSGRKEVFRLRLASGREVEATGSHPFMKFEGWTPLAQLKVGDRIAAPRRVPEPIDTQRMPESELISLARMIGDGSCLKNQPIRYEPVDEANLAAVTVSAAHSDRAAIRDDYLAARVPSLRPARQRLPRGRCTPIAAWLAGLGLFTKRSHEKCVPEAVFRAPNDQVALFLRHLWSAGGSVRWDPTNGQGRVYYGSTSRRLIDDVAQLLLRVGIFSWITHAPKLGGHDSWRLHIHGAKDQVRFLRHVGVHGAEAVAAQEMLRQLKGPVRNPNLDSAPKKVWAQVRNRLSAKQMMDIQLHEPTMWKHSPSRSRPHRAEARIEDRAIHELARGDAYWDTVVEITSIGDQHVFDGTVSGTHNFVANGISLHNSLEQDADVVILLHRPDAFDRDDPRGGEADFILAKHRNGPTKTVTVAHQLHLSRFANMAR
# Protein RecA = molecular target: T3, Protein RecA (Mycobacterium tuberculosis, UniProt P9WHJ3); assay: Fluorescence Cell-Free Homogeneous Dose Retest to Identify Inhibitors of RecA-Intein Splicing Activity. [Related pubchem assays (depositor defined):AID2097, AID2223, AID489010, AID492950]; type: functional
# T3 sequence (P9WHJ3 whole entry): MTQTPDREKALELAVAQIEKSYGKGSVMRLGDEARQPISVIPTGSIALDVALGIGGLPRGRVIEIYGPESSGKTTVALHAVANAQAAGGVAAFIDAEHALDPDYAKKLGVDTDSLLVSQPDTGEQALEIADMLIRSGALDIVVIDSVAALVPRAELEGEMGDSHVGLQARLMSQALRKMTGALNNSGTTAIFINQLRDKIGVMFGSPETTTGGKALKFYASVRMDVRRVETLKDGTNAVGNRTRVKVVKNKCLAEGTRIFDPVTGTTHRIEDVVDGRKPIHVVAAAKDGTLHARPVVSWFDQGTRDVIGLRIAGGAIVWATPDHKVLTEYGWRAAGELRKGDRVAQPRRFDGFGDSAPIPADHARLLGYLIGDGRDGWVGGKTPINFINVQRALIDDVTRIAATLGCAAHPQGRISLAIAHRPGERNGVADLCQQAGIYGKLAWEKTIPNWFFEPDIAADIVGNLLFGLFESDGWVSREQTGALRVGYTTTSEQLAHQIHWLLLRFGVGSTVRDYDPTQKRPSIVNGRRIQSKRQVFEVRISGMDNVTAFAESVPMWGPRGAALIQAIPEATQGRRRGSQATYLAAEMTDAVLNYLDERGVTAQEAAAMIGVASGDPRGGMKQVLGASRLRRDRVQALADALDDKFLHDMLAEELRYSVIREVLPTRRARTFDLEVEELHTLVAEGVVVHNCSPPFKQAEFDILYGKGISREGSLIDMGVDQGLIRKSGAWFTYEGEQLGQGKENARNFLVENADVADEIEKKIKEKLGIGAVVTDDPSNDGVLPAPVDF
# [2] = Luminescence Cell-Based Dose Retest to Confirm Inhibitors of Cancer Stem Cells. [Related pubchem assays (depositor defined):AID2717, AID2721]; type: functional; conditions: Homo sapiens
# Streptococcus = assay: GAS UMAA2166 growth inhibition – luminescence, BacTiterGlo, counter-screen for streptokinase expression inhibitor project, dose response (AID 1915); type: functional, organism-based;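 further: potency for reduction of bacterial viability or growth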
# [3] = test system: Streptococcus sp. 'group A'; assay: Streptococcus pyogenes SK(-)GAS viability under kanamycin – luminescence, BacTiterGlo, confirmation, counter-screen for streptokinase expression inhibitor project, dose response (AID 1900); type: functional, organism-based
# Cytochrome P450 3A4, sequence (P08684 whole entry): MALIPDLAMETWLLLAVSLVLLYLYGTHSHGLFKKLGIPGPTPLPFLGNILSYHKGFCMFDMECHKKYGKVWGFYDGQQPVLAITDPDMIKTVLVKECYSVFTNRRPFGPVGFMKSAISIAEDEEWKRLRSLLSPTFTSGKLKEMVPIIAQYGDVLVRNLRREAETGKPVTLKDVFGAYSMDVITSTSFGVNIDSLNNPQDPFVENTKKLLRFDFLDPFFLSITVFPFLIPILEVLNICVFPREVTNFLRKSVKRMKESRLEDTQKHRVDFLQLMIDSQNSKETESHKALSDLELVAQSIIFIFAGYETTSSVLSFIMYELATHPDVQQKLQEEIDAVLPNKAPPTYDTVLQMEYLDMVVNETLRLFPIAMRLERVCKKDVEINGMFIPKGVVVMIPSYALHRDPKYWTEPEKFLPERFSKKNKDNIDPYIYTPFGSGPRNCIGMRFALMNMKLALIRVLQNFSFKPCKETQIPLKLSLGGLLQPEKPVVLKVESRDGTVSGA
# Cytochrome P450 2C19, sequence (P33261 whole entry): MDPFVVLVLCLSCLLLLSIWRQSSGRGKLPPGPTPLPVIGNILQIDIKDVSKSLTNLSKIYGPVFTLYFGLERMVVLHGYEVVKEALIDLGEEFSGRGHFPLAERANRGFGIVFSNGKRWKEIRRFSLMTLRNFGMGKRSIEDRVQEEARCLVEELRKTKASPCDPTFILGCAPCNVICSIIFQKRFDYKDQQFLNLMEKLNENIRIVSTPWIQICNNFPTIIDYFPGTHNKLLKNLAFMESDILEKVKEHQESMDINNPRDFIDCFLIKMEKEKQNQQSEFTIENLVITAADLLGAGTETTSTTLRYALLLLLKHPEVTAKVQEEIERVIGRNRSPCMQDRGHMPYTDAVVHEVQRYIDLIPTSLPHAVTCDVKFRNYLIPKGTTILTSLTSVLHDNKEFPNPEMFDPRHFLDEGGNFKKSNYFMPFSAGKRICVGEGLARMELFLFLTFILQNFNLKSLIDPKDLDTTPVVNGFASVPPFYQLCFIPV
structure (smiles),measurement,setting,value
COC(=O)COc1ccsc1C(=O)OC,AC50,Cytochrome P450 1A2,28.2 µM (inconclusive)
Cc1cc(NC(=O)C2CCCC2)n(-c2nc3ccccc3[nH]2)n1,AC50,Cytochrome P450 2C19; read-out: AC50,10 µM (inconclusive)
COc1ccc(-n2c(=O)cnc3cnc(OC)nc32)cc1,AC50,Cytochrome P450 1A2,20 µM (inconclusive)
CC(C)(C)n1nc2c(c1NC(=O)c1ccc(S(=O)(=O)N3CCCCC3)cc1)C[S+]([O-])C2 (stereo not given),AC50,Cytochrome P450 3A4,14.1 µM (inconclusive)
same,AC50,Cytochrome P450 2C19; read-out: AC50,25.1 µM (inconclusive)
Cc1ccc(-c2nc(CN3CCCC(C(=O)N4CCOCC4)C3)c(C)o2)cc1 (stereo not given),AC50,[1],> 380 µM (inactive)
same,EC50,Protein RecA,> 380 µM (inactive)
CN(C)c1ncc2nc(-c3cc(F)cc(F)c3)c(=O)n(C[C@H]3CCCO3)c2n1,AC50,Cytochrome P450 1A2,0.0794 µM (inconclusive)
C[C@](N)(C(=O)O)c1ccc(-c2nnn[nH]2)cc1,AC50,Cytochrome P450 1A2,39.8 µM (inconclusive)
same,AC50,Cytochrome P450 2C19; read-out: AC50,7.94 µM (inconclusive)
O=C(O)COc1ccc(/C=C2/SC(=S)N(Cc3ccccc3)C2=O)cc1,AC50,[1],13.7 µM (active)
same,EC50,Protein RecA,8.33 µM (active)
CC(Oc1ccccc1)C(=O)Nc1nc2c(s1)C(=O)CC(C)(C)C2 (stereo not given),AC50,Cytochrome P450 1A2,15.8 µM (inconclusive)
COc1cccc(Cn2c(=O)cnc3cnc(Oc4ccccc4)nc32)c1,AC50,Cytochrome P450 2C19; read-out: AC50,5.01 µM (inconclusive)
Cc1noc(C)c1C(=O)N1CCC[C@@]2(CCN(C(=O)Nc3ccccc3)C2)C1,AC50,Cytochrome P450 1A2,39.8 µM (inconclusive)
COCCn1c(=O)c(-c2cc(F)cc(F)c2)nc2cnc(N3CCOCC3)nc21,AC50,Cytochrome P450 1A2,12.6 µM (inconclusive)
CN1CCN(c2ccc(NC(=O)c3ccc(C#N)cc3F)cc2Cl)CC1,AC50,[2],11.9 µM (active)
CC(=O)NCCNc1ncnc2ccc(-c3c(C)noc3C)cc12,AC50,Cytochrome P450 3A4,25.1 µM (inconclusive)
Cc1ccc(OCC(=O)NNC(=O)c2cccnc2)cc1,AC50,Cytochrome P450 3A4,25.1 µM (inconclusive)
same,AC50,Cytochrome P450 2C19; read-out: AC50,3.16 µM (inconclusive)
O=C(NC(=S)Nc1nc(-c2ccc(Br)cc2)cs1)c1cccnc1,AC50,Cytochrome P450 1A2,3.55 µM (inconclusive)
O=C(Nc1ccc(O)c(-c2nc3ccccc3o2)c1)C1(c2ccc(Br)cc2)CCCC1,AC50,[2],> 195 µM (inactive)
CC(C)C(O)(C(C)C)C(C)C,AC50,Cytochrome P450 2C19,inconclusive
CC(C)C12CN3CC(C(C)C)(CN(C1)C3c1ccco1)C2=O (stereo not given),AC50,Cytochrome P450 2C19; read-out: AC50,28.2 µM (inconclusive)
COc1ccc(NC(=O)CSc2nc(O)cc(=O)n2-c2ccccc2)cc1,EC50,Streptococcus,26.1 µM (active)
same,EC50,[3],23.1 µM (active)
CC[C@H]1OC(=O)[C@H](C)[C@@H](O[C@H]2C[C@@](C)(OC)[C@@H](O)[C@H](C)O2)[C@H](C)[C@@H](O[C@@H]2O[C@H](C)C[C@H](N(C)C)[C@H]2O)[C@](C)(O)C[C@@H](C)C(=NOCOCCOC)[C@H](C)[C@@H](O)[C@]1(C)O,EC50,Streptococcus,< 0.06 µM (active)
same,EC50,[3],< 0.06 µM (active)
CC(=O)C(Sc1ncnc2c1nnn2-c1ccc(F)cc1)C(=O)N(C)C (stereo not given),AC50,[1],21.8 µM (active)
same,EC50,Protein RecA,15.7 µM (active)
C#CCCCO/N=C1/C[C@@H](O)[C@@H](O)[C@@H]2[C@@H]3C(=O)N(CCC(=O)OCC)C(=O)[C@H]3CC[C@H]12,AC50,Cytochrome P450 3A4,5.01 µM (inconclusive)
C[C@@H](C(=O)Nc1ccc2ccccc2c1)[C@@H]1C[C@@]1(C)[C@@H](NC(=O)c1cnccn1)c1ccccc1,AC50,Cytochrome P450 1A2,12.6 µM (inconclusive)
CCOc1ccc(-c2[nH]nc3c2C(c2ccc(O)cc2)C(C#N)=C(N)O3)cc1 (stereo not given),AC50,[1],4.62 µM (active)
same,EC50,Protein RecA,1.75 µM (active)
Nc1ccccc1S(=O)(=O)NC1=NCCCCC1,AC50,[1],> 380 µM (inactive)
same,EC50,Protein RecA,> 380 µM (inactive)
COc1ccc(Oc2ncc3ncc(=O)n(C)c3n2)cc1,AC50,Cytochrome P450 3A4,25.1 µM (inconclusive)
same,AC50,Cytochrome P450 2C19; read-out: AC50,31.6 µM (inconclusive)
COc1ccc(-n2c(=O)c(C)nc3cnc(N4CCOCC4)nc32)cc1,AC50,Cytochrome P450 3A4,31.6 µM (inconclusive)
OC[C@@H]1O[C@@H](n2cnc3c(NC4CCCCC4)ncnc32)[C@@H](O)[C@H]1O,AC50,Cytochrome P450 2C19; read-out: AC50,0.0251 µM (inconclusive)
COc1cccc(Nc2ncc3nc(-c4ccc(Cl)cc4)c(=O)n(CCC#N)c3n2)c1,AC50,Cytochrome P450 3A4,2 µM (inconclusive)
same,AC50,Cytochrome P450 1A2,5.01 µM (inconclusive)
CC1=NNC(=O)C1Oc1ccccc1 (stereo not given),AC50,[1],0.737 µM (active)
same,EC50,Protein RecA,0.57 µM (active)
O=c1cc(N2CCC(Cc3ccccc3)CC2)[nH]c(=O)n1C1CCCCC1,AC50,Cytochrome P450 3A4,3.55 µM (inconclusive)
Cc1noc(C)c1C(=O)N1CCC2(CCCN(c3ccccn3)C2)CC1,AC50,Cytochrome P450 3A4,20 µM (inconclusive)
Cc1c(C)n(CCc2ccccc2)c2ncnc(NCCCN(C)C)c12,AC50,[2],3.51 µM (active)
O=C1[C@H]2O[C@@H]2[C@@H](O)[C@H]2[C@H]1CCn1c(=O)n(Cc3cc4c(cc3Cl)OCO4)c(=O)n12,AC50,Cytochrome P450 3A4,3.16 µM (inconclusive)
N#Cc1ncc(-c2ccc3c(c2)OCCOCCOCCOCCO3)nc1C#N,EC50,Protein RecA,8.97 µM (active)
Cc1ccc(C(=O)CSC2=C(C#N)C(c3ccco3)C3=C(O)CC(C)(C)CC3=N2)cc1 (stereo not given),AC50,[2],2.49 µM (active)
COc1ccc(CC(=O)O/N=C(\N)Cc2ccc(OC)cc2)cc1,AC50,Cytochrome P450 2C19; read-out: AC50,14.1 µM (inconclusive)
O=c1c(-c2ccc(Cl)cc2)nc2cncnc2n1Cc1ccccc1,AC50,Cytochrome P450 3A4,10 µM (inconclusive)
same,AC50,Cytochrome P450 2C19; read-out: AC50,25.1 µM (inconclusive)
COCCNc1nc(-c2cccc(NS(C)(=O)=O)c2)nc2ccccc12,AC50,Cytochrome P450 2C19; read-out: AC50,39.8 µM (inconclusive)
O=C(C1CC(=O)N(C2CCCC2)C1)N1CCC2(CC1)OCCO2 (stereo not given),AC50,Cytochrome P450 2C19; read-out: AC50,39.8 µM (inconclusive)
COC(=O)C/C=C\[C@@H](C)[C@@H](/C=N\O[C@@H](C)c1cn([C@H]2COC[C@H]2O)nn1)OC,AC50,Cytochrome P450 2C19,inconclusive
SC1=NCCC12C(S)=Nc1ccccc12 (stereo not given),AC50,[1],> 380 µM (inactive)
same,EC50,Protein RecA,> 380 µM (inactive)
C/C(CC(=O)Nc1ccccn1)=N\NC(=O)c1ccc(C)cc1,AC50,[1],20.4 µM (active)
same,EC50,Protein RecA,8.84 µM (active)
CCCc1nc2ccccc2c(=O)n1/N=C/c1c(C)nn(-c2ccc(C)cc2)c1O,EC50,Streptococcus,9.16 µM (active)
same,EC50,[3],2.87 µM (active)
O=C(Cc1cc(O)n[nH]1)N/N=C/c1cccc(Cl)c1Cl,AC50,[1],4.36 µM (active) and 2.36 µM (active)
same,EC50,Protein RecA,1.51 µM (active) and 1.71 µM (active)
Cn1c(-c2ccc3c(c2)OCO3)cc(=O)c2ccccc21 [GRAVEOLINE],AC50,Cytochrome P450 2C19; read-out: AC50,2 µM (inconclusive)
